Experimental data published in patent US20150119410A1, “BIOMARKERS OF RESPONSE TO NAE INHIBITORS” (MILLENNIUM PHARMACEUTICALS, INC., priority 2011, published 2015).

Tests used:
Experiment in all cases: Cell line panel 1 viability screen
Assay type in all cases: cell-based
[1] = tested on: 8505C; conditions: 8505C (thyroid)
Method: (§1) To support clinical development and identify potential biomarkers of tumor sensitivity or resistance, two large cancer cell line panels (Panel 1, N=653 (McDermott et al. (2007) PNAS 104:19936-19941); Panel 2, N=240 (O'Day et al. (2010) Fourth AACR International Conference on Molecular Diagnostics in Cancer Therapeutic Development)) were treated with MLN4924 and cell viability data (IC50, EC50, and POC—Percentage of Control) were generated.
(§2) Panel 1 (McDermott et al., supra). The cell lines were exposed to three MLN4924 concentrations (20 nM, 200 nM, and 2 μM) for 72 hours. Viability, i.e., cell number, was quantified by measuring fluorescence of a cell-permeant nucleic acid stain. Mean of triplicate values for each sample were taken and compared to DMSO control to calculate percentage of control. In the results, control or no activity value is given a value of about 1, sensitivity is indicated by a value less than 1, with 0 as death of the entire cell population and resistance indicated by a value greater than 1. A continuum of viability values was obtained for each concentration, so some values were selected as cut-offs for final determination of sensitivity or resistance. For example, median POC values of less than the median value of all POC's recorded in the panel (<0.34) indicated sensitivity, values of 0.34 to 0.75 indicated borderline sensitivity, values greater than the 3rd quartile of all POC's in the panel (>0.75) insensitivity or resistance. […] Final judgment of cell line as sensitive, insensitive or resistant was determined by its viability at 2 μM.

[2] = tested on: ACHN; conditions: ACHN (kidney)
Method: as §1, §2

[3] = tested on: AsPC-1; conditions: AsPC-1 (Pancreas)
Method: as §1, §2

[4] = tested on: BxPC-3; conditions: BxPC-3 (pancreas)
Method: as §1, §2

[5] = tested on: C-33a; conditions: C-33a (Cervix)
Method: as §1, §2

[6] = tested on: CAL-27; conditions: CAL-27 (upper aerodigestive tract)
Method: as §1, §2

[7] = tested on: COLO-678; conditions: COLO-678 (large_intestine)
Method: as §1, §2

[8] = tested on: FADU; conditions: FADU (upper aerodigestive tract)
Method: as §1, §2

[9] = tested on: KP-4; conditions: KP-4 (pancreas)
Method: as §1, §2

[10] = tested on: KYSE-150; conditions: KYSE-150 (oesophagus)
Method: as §1, §2

[11] = tested on: KYSE-180; conditions: KYSE-180 (oesophagus)
Method: as §1, §2

[12] = tested on: LS-174T; conditions: LS-174T (large_intestine)
Method: as §1, §2

[13] = tested on: MDA-MB-231; conditions: MDA-MB-231 (breast)
Method: as §1, §2

[14] = tested on: MIA-PaCa-2; conditions: MIA-PaCa-2 (pancreas)
Method: as §1, §2

[15] = tested on: MKN1; conditions: MKN1 (Stomach)
Method: as §1, §2

[16] = tested on: MKN45; conditions: MKN45 (stomach)
Method: as §1, §2

[17] = tested on: NCI-N87; conditions: NCI-N87 (stomach)
Method: as §1, §2

[18] = tested on: NCl-H1975; conditions: NCl-H1975 (lung); 2 μM MLN4924, 72 hours; DMSO control about 1
Method: as §1, §2

[19] = tested on: SK-OV-3; conditions: Homo sapiens; SK-OV-3 (ovary); 2 μM MLN4924, 72 hours; DMSO control about 1
Method: as §1, §2

[20] = tested on: SW 1463
Method: as §1, §2

[21] = tested on: T84; conditions: Homo sapiens; T84 (intestine); 2 μM MLN4924, 72 hours; DMSO control about 1
Method: as §1, §2

[22] = tested on: UMC-11; conditions: UMC-11 (lung)
Method: as §1, §2

[23] = Homo sapiens, 2 μM MLN4924, 72 hours, DMSO control about 1

NS(=O)(=O)OC[C@@H]1C[C@@H](n2ccc3c(N[C@H]4CCc5ccccc54)ncnc32)C[C@@H]1O [MLN4924, ((1S,2S,4R)-4-{4-[(1S)-2,3-dihydro-1H-inden-1-ylamino]-7H-pyrrolo[2,3-d]pyrimidin-7-yl}-2-hydroxycyclopentyl)methyl sulphamate]
Phenotype ([1]; NF2 mutant): sensitive (median POC values of less than the median value of all POC's recorded in the panel (<0.34) indicated sensitivity)
viability at 2 µM [1, 23]: 14.1%
Phenotype ([2]; NF2 mutant): sensitive (median POC values of less than the median value of all POC's recorded in the panel (<0.34) indicated sensitivity)
viability at 2 µM [2, 23]: 6.21%
Phenotype ([3]; FBXW7 mutant): resistant (values greater than the 3rd quartile of all POC's in the panel (>0.75) insensitivity or resistance)
viability at 2 µM ([3]; Homo sapiens, ASPC1, 2 μM MLN4924, 72 hours, DMSO control about 1): 98.9%
Phenotype ([4]; SMAD4 mutant): insensitive (values of 0.34 to 0.75 indicated borderline sensitivity)
viability at 2 µM [4, 23]: 41.9%
Phenotype ([5]; FBXW7 mutant): sensitive (median POC values of less than the median value of all POC's recorded in the panel (<0.34) indicated sensitivity)
viability at 2 µM [5, 23]: 8.22%
Phenotype ([6]; SMAD4 mutant): sensitive (median POC values of less than the median value of all POC's recorded in the panel (<0.34) indicated sensitivity)
viability at 2 µM [6, 23]: 2.71%
Phenotype ([7]; SMAD4 mutant): resistant (values greater than the 3rd quartile of all POC's in the panel (>0.75) insensitivity or resistance)
viability at 2 µM [7, 23]: 81.4%
Phenotype ([8]; SMAD4 mutant): sensitive (median POC values of less than the median value of all POC's recorded in the panel (<0.34) indicated sensitivity)
viability at 2 µM [8, 23]: 7.3%
viability at 2 µM [9, 23]: 5.18%
Phenotype ([9]; SMAD4 mutant): sensitive (median POC values of less than the median value of all POC's recorded in the panel (<0.34) indicated sensitivity)
viability at 2 µM [10, 23]: 12.8%
Phenotype ([10]; SMAD4 mutant): sensitive (median POC values of less than the median value of all POC's recorded in the panel (<0.34) indicated sensitivity)
viability at 2 µM [11, 23]: 21.5%
Phenotype ([11]; KDM6A mutant): sensitive (median POC values of less than the median value of all POC's recorded in the panel (<0.34) indicated sensitivity)
viability at 2 µM ([12]; Homo sapiens, LS174T, 2 μM MLN4924, 72 hours, DMSO control about 1): 32.6%
Phenotype ([12]; KDM6A mutant): sensitive (median POC values of less than the median value of all POC's recorded in the panel (<0.34) indicated sensitivity)
viability at 2 µM [13, 23]: 52.8%
Phenotype ([13]; NF2 mutant): insensitive (values of 0.34 to 0.75 indicated borderline sensitivity)
viability at 2 µM [14, 23]: 11.5%
Phenotype ([14]; KDM6A mutant): sensitive (median POC values of less than the median value of all POC's recorded in the panel (<0.34) indicated sensitivity)
viability at 2 µM ([15]; Homo sapiens, MKN-1, 2 μM MLN4924, 72 hours, DMSO control about 1): 46.3%
Phenotype ([15]; FBXW7 mutant): insensitive (values of 0.34 to 0.75 indicated borderline sensitivity)
viability at 2 µM ([16]; Homo sapiens, MKN-45, 2 μM MLN4924, 72 hours, DMSO control about 1): 36.1%
Phenotype ([16]; SMAD4 mutant): insensitive (values of 0.34 to 0.75 indicated borderline sensitivity)
viability at 2 µM [17, 23]: 14.6%
Phenotype ([17]; SMAD4 mutant): sensitive (median POC values of less than the median value of all POC's recorded in the panel (<0.34) indicated sensitivity)
viability at 2 µM [18]: 30.5%
viability at 2 µM [19]: 39.7%
viability at 2 µM ([20]; Homo sapiens, SW 1463 / SW1463 (intestine), 2 μM MLN4924, 72 hours, DMSO control about 1): 89.6%
Phenotype ([20]; SW1463 (Intestine), FBXW7 mutant): resistant (values greater than the 3rd quartile of all POC's in the panel (>0.75) insensitivity or resistance)
viability at 2 µM [21]: 57.8%
viability at 2 µM [22, 23]: 44.7%
Phenotype ([22]; SMAD4 mutant): insensitive (values of 0.34 to 0.75 indicated borderline sensitivity)
